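Values below derive from 48-hour exposures of cells grown in 96-well plates, with endpoints linearly interpolated between the two concentrations bracketing the appropriate inhibition level. Abbreviation: GI50, concentration required for 50% inhibition of growth.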 Calls of active or inactive are those of the source. Cut-off read from the data, not from the text of the source: active = GI50 up to about 1.1 µM and inactive = higher.
Tests used:
Experiment in all cases: DTP human tumour cell line panel, 48 h
KM12 = test system: KM12
IGROV-1 = test system: IGROV-1
SK-MEL-5 = test system: SK-MEL-5
KM-20L2 = test system: KM-20L2
SNB-19 = test system: SNB-19
EKVX = test system: EKVX
RXF 631 = test system: RXF 631
SK-MEL-28 = test system: SK-MEL-28
M14 = test system: M14
CCRF-CEM = test system: CCRF-CEM
DMS-273 = test system: DMS-273
SNB-78 = test system: SNB-78
HL-60 = test system: HL-60
UACC-257 = test system: UACC-257
K562 = test system: K562
SF-268 = test system: SF-268
DMS-114 = test system: DMS-114
Malme-3M = test system: Malme-3M
SK-OV-3 = test system: SK-OV-3
SW-620 = test system: SW-620
HOP-18 = test system: HOP-18
HCT-15 = test system: HCT-15
786-0 = test system: 786-0
SNB-75 = test system: SNB-75
NCI-H23 = test system: NCI-H23
A549 = test system: A549
A498 = test system: A498
TK-10 = test system: TK-10
MOLT-4 = test system: MOLT-4
UO-31 = test system: UO-31
HCC 2998 = test system: HCC 2998
DLD-1 = test system: DLD-1
U-251 = test system: U-251
NCI-H226 = test system: NCI-H226
HCT-116 = test system: HCT-116
SR = test system: SR
RXF 393 = test system: RXF 393
CAKI-1 = test system: CAKI-1
UACC-62 = test system: UACC-62
ACHN = test system: ACHN
M19-MEL = test system: M19-MEL
LXFL 529 = test system: LXFL 529
OVCAR-8 = test system: OVCAR-8
SK-MEL-2 = test system: SK-MEL-2
RPMI-8226 = test system: RPMI-8226
NCI-H522 = test system: NCI-H522
HT-29 = test system: HT-29
OVCAR-3 = test system: OVCAR-3
COLO 205 = test system: COLO 205
HOP-62 = test system: HOP-62
OVCAR-4 = test system: OVCAR-4
SN12C = test system: SN12C
SF-539 = test system: SF-539
LOX IMVI = test system: LOX IMVI
HOP-92 = test system: HOP-92
XF498 = test system: XF498
NCI-H460 = test system: NCI-H460
OVCAR-5 = test system: OVCAR-5
SF-295 = test system: SF-295

## Cc1ccc2c(c1-c1ccccc1)C(=O)OC2
KM12
  GI50: > 100 µM (inactive)
IGROV-1
  GI50: > 100 µM (inactive)
SK-MEL-5
  GI50: > 100 µM (inactive)
KM-20L2
  GI50: 20.4 µM (inactive)
SNB-19
  GI50: > 100 µM (inactive)
EKVX
  GI50: 17.1 µM (inactive)
RXF 631
  GI50: > 100 µM (inactive)
SK-MEL-28
  GI50: > 100 µM (inactive)
M14
  GI50: > 100 µM (inactive)
CCRF-CEM
  GI50: > 100 µM (inactive)
DMS-273
  GI50: > 100 µM (inactive)
SNB-78
  GI50: 37 µM (inactive)
HL-60
  GI50: > 100 µM (inactive)
UACC-257
  GI50: > 100 µM (inactive)
K562
  GI50: 56.1 µM (inactive)
SF-268
  GI50: > 100 µM (inactive)
DMS-114
  GI50: 99.3 µM (inactive)
Malme-3M
  GI50: > 100 µM (inactive)
SK-OV-3
  GI50: > 100 µM (inactive)
SW-620
  GI50: > 100 µM (inactive)
HOP-18
  GI50: > 100 µM (inactive)
HCT-15
  GI50: > 100 µM
786-0
  GI50: > 100 µM (inactive)
SNB-75
  GI50: > 100 µM (inactive)
NCI-H23
  GI50: > 100 µM (inactive)
A549
  GI50: > 100 µM (inactive)
A498
  GI50: > 100 µM (inactive)
TK-10
  GI50: > 100 µM (inactive)
MOLT-4
  GI50: 94.4 µM (inactive)
UO-31
  GI50: 75 µM (inactive)
HCC 2998
  GI50: > 100 µM (inactive)
DLD-1
  GI50: > 100 µM (inactive)
U-251
  GI50: > 100 µM (inactive)
NCI-H226
  GI50: > 100 µM (inactive)
HCT-116
  GI50: > 100 µM (inactive)
SR
  GI50: 90.6 µM (inactive)
RXF 393
  GI50: > 100 µM (inactive)
CAKI-1
  GI50: > 100 µM (inactive)
UACC-62
  GI50: 28.7 µM (inactive)
ACHN
  GI50: > 100 µM (inactive)
M19-MEL
  GI50: > 100 µM (inactive)
LXFL 529
  GI50: > 100 µM (inactive)
OVCAR-8
  GI50: > 100 µM (inactive)
SK-MEL-2
  GI50: > 100 µM (inactive)
RPMI-8226
  GI50: > 100 µM (inactive)
NCI-H522
  GI50: > 100 µM (inactive)
HT-29
  GI50: > 100 µM (inactive)
OVCAR-3
  GI50: 76.7 µM (inactive)
COLO 205
  GI50: > 100 µM (inactive)
HOP-62
  GI50: > 100 µM (inactive)
OVCAR-4
  GI50: > 100 µM (inactive)
SN12C
  GI50: > 100 µM (inactive)

## C#CCOCn1cnc2ncnc(Cl)c21
KM12
  GI50: > 100 µM (inactive)
SF-539
  GI50: > 100 µM (inactive)
IGROV-1
  GI50: > 100 µM (inactive)
SK-MEL-5
  GI50: > 100 µM (inactive)
KM-20L2
  GI50: > 100 µM (inactive)
SNB-19
  GI50: > 100 µM (inactive)
EKVX
  GI50: > 100 µM (inactive)
RXF 631
  GI50: > 100 µM (inactive)
SK-MEL-28
  GI50: > 100 µM (inactive)
LOX IMVI
  GI50: > 100 µM (inactive)
M14
  GI50: > 100 µM (inactive)
CCRF-CEM
  GI50: > 100 µM (inactive)
DMS-273
  GI50: > 100 µM (inactive)
SNB-78
  GI50: > 100 µM (inactive)
UACC-257
  GI50: > 100 µM (inactive)
HOP-92
  GI50: > 100 µM (inactive)
K562
  GI50: > 100 µM (inactive)
SF-268
  GI50: > 100 µM (inactive)
XF498
  GI50: > 100 µM (inactive)
NCI-H460
  GI50: > 100 µM (inactive)
DMS-114
  GI50: > 100 µM (inactive)
Malme-3M
  GI50: > 100 µM (inactive)
SK-OV-3
  GI50: > 100 µM (inactive)
SW-620
  GI50: > 100 µM (inactive)
HOP-18
  GI50: > 100 µM (inactive)
786-0
  GI50: > 100 µM (inactive)
SNB-75
  GI50: > 100 µM (inactive)
NCI-H23
  GI50: > 100 µM (inactive)
A549
  GI50: > 100 µM (inactive)
A498
  GI50: > 100 µM (inactive)
TK-10
  GI50: > 100 µM (inactive)
MOLT-4
  GI50: > 100 µM (inactive)
OVCAR-5
  GI50: > 100 µM (inactive)
UO-31
  GI50: > 100 µM (inactive)
HCC 2998
  GI50: > 100 µM (inactive)
DLD-1
  GI50: > 100 µM (inactive)
U-251
  GI50: > 100 µM (inactive)
NCI-H226
  GI50: > 100 µM (inactive)
HCT-116
  GI50: > 100 µM (inactive)
SR
  GI50: > 100 µM (inactive)
SF-295
  GI50: > 100 µM (inactive)
CAKI-1
  GI50: > 100 µM (inactive)
UACC-62
  GI50: > 100 µM (inactive)
ACHN
  GI50: > 100 µM (inactive)
M19-MEL
  GI50: > 100 µM (inactive)
LXFL 529
  GI50: > 100 µM (inactive)
OVCAR-8
  GI50: > 100 µM (inactive)
SK-MEL-2
  GI50: > 100 µM (inactive)
RPMI-8226
  GI50: > 100 µM (inactive)
NCI-H522
  GI50: > 100 µM (inactive)
HT-29
  GI50: > 100 µM (inactive)
OVCAR-3
  GI50: > 100 µM (inactive)
COLO 205
  GI50: > 100 µM (inactive)
HOP-62
  GI50: > 100 µM (inactive)
OVCAR-4
  GI50: > 100 µM (inactive)
SN12C
  GI50: > 100 µM (inactive)

## CN1CCC(O)C(CNC23CC4CC(CC(C4)C2)C3)C1 (stereo not drawn)
KM12
  GI50: > 100 µM (inactive)
SF-539
  GI50: > 100 µM (inactive)
SK-MEL-5
  GI50: > 100 µM (inactive)
KM-20L2
  GI50: 59 µM (inactive)
SNB-19
  GI50: > 100 µM (inactive)
EKVX
  GI50: > 100 µM (inactive)
RXF 631
  GI50: > 100 µM (inactive)
SK-MEL-28
  GI50: > 10 µM (inactive)
LOX IMVI
  GI50: > 100 µM (inactive)
CCRF-CEM
  GI50: > 100 µM (inactive)
DMS-273
  GI50: > 100 µM (inactive)
SNB-78
  GI50: > 100 µM (inactive)
HL-60
  GI50: > 100 µM (inactive)
UACC-257
  GI50: > 100 µM (inactive)
HOP-92
  GI50: 85.1 µM (inactive)
K562
  GI50: > 100 µM (inactive)
SF-268
  GI50: > 100 µM (inactive)
XF498
  GI50: > 100 µM (inactive)
NCI-H460
  GI50: > 100 µM (inactive)
DMS-114
  GI50: > 100 µM (inactive)
Malme-3M
  GI50: > 100 µM (inactive)
SK-OV-3
  GI50: > 100 µM (inactive)
SW-620
  GI50: > 100 µM (inactive)
786-0
  GI50: > 100 µM (inactive)
NCI-H23
  GI50: > 100 µM (inactive)
A549
  GI50: > 100 µM (inactive)
A498
  GI50: > 100 µM (inactive)
TK-10
  GI50: > 100 µM (inactive)
MOLT-4
  GI50: > 100 µM (inactive)
OVCAR-5
  GI50: > 100 µM (inactive)
UO-31
  GI50: > 100 µM (inactive)
DLD-1
  GI50: > 100 µM (inactive)
U-251
  GI50: > 100 µM (inactive)
NCI-H226
  GI50: > 100 µM (inactive)
SR
  GI50: > 100 µM (inactive)
SF-295
  GI50: > 100 µM (inactive)
RXF 393
  GI50: 62.2 µM (inactive)
CAKI-1
  GI50: > 100 µM (inactive)
UACC-62
  GI50: > 100 µM (inactive)
ACHN
  GI50: > 100 µM (inactive)
M19-MEL
  GI50: > 100 µM (inactive)
LXFL 529
  GI50: > 100 µM (inactive)
OVCAR-8
  GI50: > 100 µM (inactive)
SK-MEL-2
  GI50: > 100 µM (inactive)
NCI-H522
  GI50: > 100 µM (inactive)
HT-29
  GI50: > 100 µM (inactive)
COLO 205
  GI50: > 100 µM (inactive)
HOP-62
  GI50: > 100 µM (inactive)
OVCAR-4
  GI50: > 100 µM (inactive)
SN12C
  GI50: > 100 µM (inactive)

— ChEMBL document CHEMBL1201862, “PubChem BioAssay data set” (2004)
